{"source": "PubChem BioAssay AID493172", "about": "(Broad Institute, 2011)", "note": "The source made the active and inactive calls.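 Rule for the calls: active = falling signal with an AC50 no greater than ten times the top valid dose tested for that sample; inconclusive = flat curve with inhibition of 30 to 70 percent, or poor fit; inactive = activity in the rising direction, and the rest.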"}
{"target": "LuxS (S-ribosylhomocysteine lyase), bacterial", "test": "S-ribosylhomocysteine lyase activity inhibition – biochemical, dry powder, set 2, absorbance, dose response (AID 493172)", "conditions": "purified Co-LuxS, DTNB homocysteine absorbance 412 nm"}
{"compound": "C=Cn1c(C(=O)O)ccc1-c1ccc(CC)cc1", "AC50": "> 35 µM (inactive)"}
{"target": "LuxS (S-ribosylhomocysteine lyase), bacterial", "test": "S-ribosylhomocysteine lyase activity inhibition – biochemical, dry powder, set 2, absorbance, dose response (AID 493172)", "conditions": "purified Co-LuxS, DTNB homocysteine absorbance 412 nm; at 35 µM (top of the series)"}
{"compound": "Cc1cccc(NC(=O)c2ccc(Oc3ccccc3)cc2)n1", "activity change, negative = inhibition": "inactive"}
{"compound": "COc1cc(NC(=O)CN2C(=O)NC(c3ccccc3)(c3ccccc3)C2=O)cc(OC)c1", "activity change, negative = inhibition": "inactive"}
{"compound": "CCc1ccc(S(=O)(=O)Nc2ccc(Br)cn2)cc1", "activity change, negative = inhibition": "inactive"}
{"compound": "CCc1ccc(C(=O)Nc2ccc(Br)cn2)cc1", "activity change, negative = inhibition": "inactive"}
{"compound": "Cn1cnc(S(=O)(=O)Nc2ccc(OC(F)(F)F)cc2)c1", "activity change, negative = inhibition": "inactive"}
{"compound": "Cc1cccc(NS(=O)(=O)c2ccc(Oc3ccccc3)cc2)n1", "activity change, negative = inhibition": "inactive"}
